Results on 4 compounds are retold here after patent US20070203126A1, “Synergistic Mixtures of O-Phenylphenol and Dazomet” (priority 2002, published 2007).

Structures are written as SMILES. Read-outs that look alike come from different tables or passages of the source.

Experiment [1] has as its system mixed inoculum of bacteria. The experiment is described as follows: microtiter plate MIC and combination (K value) test in nutrient broth. It counts as cell-based. The conditions noted are these: 24 hours, read-out: MIC RESULTS against mixed inoculum of bacteria. The method, then: EQUIPMENT used for the experiment are as follows: • 1. Incubator capable of maintaining a variable temperature range (25-45 C.); • 2. Samples of each biocide or test compound to be examined; • 3. Microtiter plates—96 well with lid, sterile; • 4. 8-12 channel micropipetting device capable of pipetting 0-250 ul volumes; • 5. Micropipette tips capable of holding up to 250 ul volumes; • 6. Sterile microbiological culture broth. Trypticase Soy Broth (TSB) or Nutrient Broth (NB) is recommended for bacteria and Sabouraud Maltose Broth (SMB) or Sabouraud Dextrose Broth (SDB) is recommended for yeasts and molds. In the case of this particular study the microbiological culture medium was Nutrient Broth at pH 7.0, 8.0 and 9.0; • 7. Pure cultures of microorganisms of choice grown on appropriate agar medium; • 8. Sterile distilled water; • 9. 100 mL volumetric flasks (one for each biocide to be tested); • 10. Sterile 10 mL tubes of Phosphate buffer (Butterfield's buffer pH 7.2+/−0.2). Contains purified water, monobasic potassium phosphate and sodium hydroxide for pH adjustment; • 11. Sterile cotton swabs; • 12. 0.5 MacFarland Turbidity Standard;
Preparation of Bacterial Inocula
The day before testing, perform a streak plate of each organism to be tested on an appropriate agar medium (Trypticase Soy Agar). Organisms tested in this study were.
Wild strain bacteria isolated from previously contaminated industrial systems and which were identified as: Pseudomonas sp., Escherchia coli, Enterobacter sp., Alcaligenes sp. and Alcaligenes faecalis. On the day of the test, use a sterile cotton swab to harvest some of the growth. Place swab into a tube containing 10 mL sterile phosphate buffer. Compare and adjust the turbidity of the organisms in the tube to 1×10^8 cfu/mL using a 0.5 MacFarland Turbidity Standard. Dilute the 10 mL tube into 90 mL of sterile 2× nutrient broth at pH 7.0, 8.0 and 9.0.
The following procedure was used: • 1. Design the layout of the microtiter plates based on the number of organisms to test and the number of biocides and desired concentrations to test. A separate microtiter plate is required for testing each biocide alone, in addition to the combination microtiter plate. • 2. Prepare a working stock solution of each biocide to be tested. For the combination microtiter plate, the working stock solution of Biocide A will be 8× the concentration desired in the first well of the combination microtiter plate. The working stock solution of Biocide B will be 4× the concentration desired in the first well of the combination microtiter plate. For the alone microtiter plates, the working stock solutions of Biocide A and Biocide B will both be 4× the concentration desired in the first well of the single biocide microtiter plates.
Tetrahydro-3-5-dimethyl-2H-1,3-5-thiadiazine-2-thione (Dazomet): (For combination plates) A solution of this product, which is 99% active, was made as follows: […]=8000 ppm active=8000/0.99=8080 ppm, 0.8 g into 100 mL MeOH and sterile diH2O.
o-Phenylphenol (OPP): (For combination plates) Make a solution of this product which is 99% active, 4×125=500 ppm active=500/0.99=505 ppm, 0.05 g into 100 mL MeOH and sterile diH2O. Level to test is 125 ppm.
(For alone plates) A solution was made as follows: 4×4000=16000 ppm active=16000/0.99=16161 ppm, 1.6 into 100 mL MeOH and sterile diH2O. Levels to test are: 4000 ppm, 2000 ppm, 1000 ppm, 500 ppm, 250 ppm, 125 ppm, 62.5 ppm, 31.2 ppm, 15.6 ppm, 7.8 ppm, 3.9 ppm, 1.95 ppm • 3. Place 50 ul of sterile distilled water in all of the rows in columns 1 through 10, and 100 ul of sterile distilled water in all of the rows in columns 11 and 12 of the 96 well combination microtiter plate. Place 100 ul of sterile distilled water in each well of the 96 well alone microtiter plates. • 4. For the combination microtiter plate, place 50 ul of the Biocide A stock solution into all of the rows in column 1 of the combination microtiter plate. • 5. […]

For experiment [2], the system named is artificial bacterial consortium containing approximately equal numbers of six bacterial strains. Put plainly: bacterial growth inhibition dose protocol in synthetic white water (O.D. 650 nm, 4 hours). It counts as cell-based. Conditions: for Synergy Index / Synergy Index**: SI<1 synergism; for ppm BNS: BNS alone or in blend with NaOPP giving 50% inhibition. How it is done: The actives were evaluated in synthetic white water with pH values of 5.5 and 8.0. The materials were tested against an artificial bacterial consortium containing approximately equal numbers of six bacterial strains. […] Two of the strains were Kiebsiella pneumoia (ATCC 13883) and Pseudomonas aeruginosa (ATCC 15442). The other four strains were isolated from papermill systems and have been identified as Curtobacterium flaccumfaciens, Burkhlderia cepacia, Bacillus maroccanus, and Pseudomonas glethei. Each strain was inoculated at 37° C. overnight, then suspended in sterile saline. Equal volumes of each strain were then combined to prepare the consortium. The bacterial consortium was distributed into the wells of a microtiter plate in the presence or absence of various concentrations of the active materials. The microtiter plates were incubated at 37° C. Optical density (O.D.) readings at 650 nm were taken initially (t0) and after time 4 hours (t4) of incubation.
The raw data was converted to “bacterial growth inhibition percentages” according to the following formula: % Inhibition=[(a−b)÷a]·100 […]
a=(O.D. of control at tn)−(O.D. of control at t0) b=(O.D. of treatment at tn)−(O.D. of treatment at t0)
The inhibition values can be plotted versus dosage for each active and the particular blend. […] The synergism index (SI) was calculated by the equations described by F. C. Kull, P. C. Eisman, H. D. Sylwestrowicz, and R. L. Mayer (1961), Applied Microbiology 9, 538-541. The values are based on the amount needed to achieve a specified end point. […] Synergy Index (SI)=(QA÷Qa)+(QB÷Qb) […]
QA=quantity of compound A in mixture, producing the end point
Qa=quantity of compound A1 acting alone, producing the end point
QB=quantity of compound B in mixture, producing the end point
Qb=quantity of compound B1 acting alone, producing the end point
If SI is less than 1, synergism exists; if SI is greater than 1, antagonism exists, if SI is equal to 1, an additive effect exists.

[3] abbreviates: pH 5.5, Dazomet & NaOPP, end point 50% inhibition.
Setting [4] is: pH 8.0, Dazomet & NaOPP, end point 50% inhibition.
The mark [5] stands for this setting: pH 5.5, BNS & NaOPP, end point 50% inhibition.
Setting [6] is: pH 8.0, BNS & NaOPP, end point 50% inhibition.

On to `Oc1ccccc1-c1ccccc1` [OPP, o-Phenylphenol], for which the MIC (in general, the lowest concentration that inhibits growth of the organism) was 2000 µg/mL in experiment [1] (pH 7.0, biocide alone); 1000 µg/mL in experiment [1] (pH 8.0, biocide alone); 500 µg/mL in experiment [1] (pH 9.0, biocide alone).

For `CN1CSC(=S)N(C)C1` [Dazomet, tetrahydo-3,5-dimethyl-2H-1-3-5-thiadiazine-2-thione], the MIC was found to be 2000 µg/mL in experiment [1] (pH 7.0, biocide alone); 2000 µg/mL in experiment [1] (pH 8.0, biocide alone); 4000 µg/mL in experiment [1] (pH 9.0, biocide alone). Also, the “Synergy Index” value in experiment [2] (setting [3]) and in experiment [2] (setting [4]) was 1.00 each time. In experiment [2] (pH 5.5, Dazomet alone or in blend with NaOPP giving 50% inhibition, ppm active), the “ppm Dazomet” value is 6.176 ppm. Moreover, the “Ppm Dazomet” value in experiment [2] (pH 8.0, Dazomet alone or in blend with NaOPP giving 50% inhibition, ppm active) is reported as 5.34 ppm.

Take `[Na+].[O-]c1ccccc1-c1ccccc1` [NaOPP, Sodium orthophenylphenate]: the “Synergy Index” value in experiment [2] (pH 5.5, BCDMH & NaOPP, end point 50% inhibition) was 1.00; in experiment [2] (pH 5.5, BIT & NaOPP, end point 50% inhibition), 1.00; in experiment [2] (setting [5]), 1.00; in experiment [2] (pH 5.5, DBNPA & NaOPP, end point 50% inhibition), 1.00; in experiment [2] (pH 5.5, DIMTS & NaOPP, end point 50% inhibition), 1.00; in experiment [2] (setting [3]) it was 1.00. Also, the “Synergy Index” value in experiment [2] (pH 5.5, Dithiol & NaOPP, end point 50% inhibition) turned out to be 1.00; in experiment [2] (pH 5.5, Iso & NaOPP, end point 50% Inhibition), 1.00; in experiment [2] (pH 5.5, Sulfone & NaOPP, end point 50% inhibition), 1.00; in experiment [2] (pH 8.0, BCDMH & NaOPP, end point 50% inhibition) it was 1.00; in experiment [2] (pH 8.0, BIT & NaOPP, end point 50% inhibition), 1.00; in experiment [2] (setting [6]), 1.00. Besides, the “Synergy Index” value in experiment [2] (pH 8.0, DBNPA & NaOPP, end point 50% inhibition) was determined as 1.00; in experiment [2] (setting [4]), 1.00; in experiment [2] (pH 8.0, Dithiol & NaOPP, end point 50% inhibition), 1.00; in experiment [2] (pH 8.0, Iso & NaOPP, end point 50% Inhibition), 1.00; in experiment [2] (pH 8.0, Sulfone & NaOPP, end point 50% inhibition) it was 1.00. In addition, the “Synergy Index**” value in experiment [2] (pH 5.5, NaOCl & NaOPP, Calculated Using 30% Inhibition of Bacterial Growth) was 1.00; in experiment [2] (pH 8.0, DIMTS & NaOPP, Calculated Using 40% Inhibition of Bacterial Growth), 1.00. The “ppm NaOPP” value is 78.40 ppm in experiment [2] (pH 5.5, NaOPP alone or in blend with BCDMH giving 50% inhibition, ppm active); 84.96 ppm in experiment [2] (pH 5.5, NaOPP alone or in blend with BIT giving 50% inhibition, ppm active); 90.47 ppm in experiment [2] (pH 5.5, NaOPP alone or in blend with BNS giving 50% inhibition, ppm active); 88.38 ppm in experiment [2] (pH 5.5, NaOPP alone or in blend with DBNPA giving 50% inhibition, ppm active); 84.10 ppm in experiment [2] (pH 5.5, NaOPP alone or in blend with DIMTS giving 50% inhibition, ppm active); 82.73 ppm in experiment [2] (pH 5.5, NaOPP alone or in blend with Iso giving 50% Inhibition, ppm active). Also, the “ppm NaOPP” value in experiment [2] (pH 5.5, NaOPP alone or in blend with NaOCl producing the end point, footnote: 30% Inhibition of Bacterial Growth) is 54.92 ppm; in experiment [2] (pH 5.5, NaOPP alone or in blend with Sulfone giving 50% inhibition, ppm active), 56.78 ppm; in experiment [2] (pH 8.0, NaOPP alone or in blend with BIT giving 50% inhibition, ppm active) it was 116.41 ppm; in experiment [2] (pH 8.0, NaOPP alone or in blend with BNS giving 50% inhibition, ppm active) it was 123.16 ppm; in experiment [2] (pH 8.0, NaOPP alone or in blend with DBNPA giving 50% inhibition, ppm active), 137.13 ppm; in experiment [2] (pH 8.0, NaOPP alone or in blend with DIMTS producing the end point, footnote: 40% Inhibition of Bacterial Growth), 97.74 ppm. Moreover, the “ppm NaOPP” value in experiment [2] (pH 8.0, NaOPP alone or in blend with Dazomet giving 50% inhibition, ppm active) is given as 158.32 ppm; in experiment [2] (pH 8.0, NaOPP alone or in blend with Dithiol giving 50% inhibition, ppm active) it was 132.71 ppm; in experiment [2] (pH 8.0, NaOPP alone or in blend with Iso giving 50% Inhibition, ppm active) it was 114.14 ppm; in experiment [2] (pH 8.0, NaOPP alone or in blend with Sulfone giving 50% inhibition, ppm active), 67.8 ppm.

Consider `O=[N+]([O-])C(Br)=Cc1ccccc1` [BNS, Bromonitrostyrene], for which the “Synergy Index” value in experiment [2] (setting [5]) and in experiment [2] (setting [6]) was 1.00 in each case. Moreover, the “ppm BNS” value in experiment [2] (pH 5.5, ppm active) amounted to 1.19 ppm; in experiment [2] (pH 8.0, ppm active), 3.08 ppm.
